According to patent publication US20240208895A1, “BRANCHED-CHAIN AMINO ACID DERIVATIVES TO TREAT DISEASE” (INTRABIO LTD., priority 2021, published 2024):
Read-outs that look alike come from different tables or passages of the source. Each block holds one molecule with its values, some of them ahead of it.

Columns and labels:
[1] = Procedure: (§1) A Compound of the Disclosure is incubated at 1 μM, 10 μM and 100 μM with pooled liver S9 fractions from human (mixed gender) and mouse (CD1) at 1.5 mg/mL in 300 μL buffer containing phosphate 100 mM, MgCl2 2 mM, pH 7.4 at 37° C. for 0, 10, 20, 40, 60 min.
(§2) Enzyme kinetic data for uptake and metabolism of a Compound of the Disclosure is analysed by fitting the Michaelis-Menten equation to the data. V0=Vmax[S]/Km+[S], where V0 is initial velocity, [S] is substrate concentration, Vmax is maximum velocity and Km is substrate concentration at half Vmax. All fitting is performed using GraphPad Prism 8.4 software (GraphPad Software Inc). No weighting scheme is applied.

[2] = remark: listed apart in the source
Procedure: as §1, §2

LAT1 = target: T1, LAT1 (Homo sapiens, UniProt Q01650); assay: LAT1 transporter-mediated cellular uptake (substrate test); format: cell-based; details: uptake 3 min, 37° C.
T1 construct: expressed in transfected cells
T1 sequence (Q01650 whole entry): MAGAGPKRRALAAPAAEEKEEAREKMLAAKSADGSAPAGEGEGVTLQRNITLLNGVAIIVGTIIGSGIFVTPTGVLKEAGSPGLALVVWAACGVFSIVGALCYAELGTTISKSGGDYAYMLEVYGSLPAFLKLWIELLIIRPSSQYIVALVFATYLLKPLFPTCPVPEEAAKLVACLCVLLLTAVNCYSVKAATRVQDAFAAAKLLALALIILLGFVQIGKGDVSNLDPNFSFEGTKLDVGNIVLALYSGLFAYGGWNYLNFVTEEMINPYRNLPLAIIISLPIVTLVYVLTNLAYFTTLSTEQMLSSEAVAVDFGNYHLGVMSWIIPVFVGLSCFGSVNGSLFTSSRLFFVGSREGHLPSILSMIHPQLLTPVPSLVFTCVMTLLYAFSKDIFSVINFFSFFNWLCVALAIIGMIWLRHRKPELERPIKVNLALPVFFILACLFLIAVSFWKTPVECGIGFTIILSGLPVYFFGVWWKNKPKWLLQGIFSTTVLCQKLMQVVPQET
T1 sequence (P08195 102-630 partner): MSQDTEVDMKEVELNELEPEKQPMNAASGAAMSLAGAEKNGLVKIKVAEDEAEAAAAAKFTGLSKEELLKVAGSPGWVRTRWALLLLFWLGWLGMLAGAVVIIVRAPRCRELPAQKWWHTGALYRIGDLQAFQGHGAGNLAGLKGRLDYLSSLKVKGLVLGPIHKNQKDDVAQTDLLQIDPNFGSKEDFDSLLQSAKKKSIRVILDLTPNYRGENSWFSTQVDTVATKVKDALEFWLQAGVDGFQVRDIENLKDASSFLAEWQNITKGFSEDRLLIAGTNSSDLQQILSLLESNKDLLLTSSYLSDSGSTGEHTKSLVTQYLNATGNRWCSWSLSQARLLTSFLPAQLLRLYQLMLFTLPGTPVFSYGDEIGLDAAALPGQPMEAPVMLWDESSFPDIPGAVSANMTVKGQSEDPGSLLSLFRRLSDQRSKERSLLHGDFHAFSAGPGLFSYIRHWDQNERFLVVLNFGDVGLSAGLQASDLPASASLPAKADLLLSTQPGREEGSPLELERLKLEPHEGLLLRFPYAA
Procedure: DMSO (0.5%) was the solvent control (SC) and the known inhibitor for the positive control (PC) was JPH203 (10 μM). Data were fit to either the Michaelis-Menten equation for uptake or the Hill equation for inhibition using the solvent control to define the top and the positive control inhibitor to define the bottom. Symbols represent the mean±SEM, n=3.
Human OAT1 (SLC22A6) and OAT3 (SLC22A8) overexpressing HEK-293 cells and control cells without transfected transporter (Corning® TransportoCells™) are plated to 24-well plates and cellular uptake of 10 to 100 μg/mL of a Compound of the Disclosure is measured in the absence and presence of transporter inhibitors. Uptake of a Compound of the Disclosure into control cells is measured only without chemical inhibitors. […] Cells are grown in DMEM (Gibco 4196, high glucose, without sodium pyruvate) supplemented with MEM non-essential amino acids and 10% fetal bovine serum. Cells are re-fed with fresh medium after attachment (4-6 hours post-seeding). Cell are plated at a density of 4×10^5/well in 24-well plates coated with poly-D-lysine. Transporter assays are conducted in 400 μL of HBSS supplemented with 10 mM Hepes, pH 7.4
The known probe substrates used as positive controls are 3 μM chlorothiazide for OAT1, 2 μM estrone-3-sulfate for OAT3, 10 μM gabapentin for LAT1, 50 μM Gly-Sar for PepT1, 500 μM thiophene-2-glyoxylic acid for MCT1. […]

[3] = target: T2, monocarboxylate transporter (MCT1) (Homo sapiens, UniProt P53985); assay: Inhibition of MCT1 uptake of known substrate 2-thiophene glyoxylate; format: cell-based; set-up: expressed in transfected cells
T2 sequence (P53985 1-500): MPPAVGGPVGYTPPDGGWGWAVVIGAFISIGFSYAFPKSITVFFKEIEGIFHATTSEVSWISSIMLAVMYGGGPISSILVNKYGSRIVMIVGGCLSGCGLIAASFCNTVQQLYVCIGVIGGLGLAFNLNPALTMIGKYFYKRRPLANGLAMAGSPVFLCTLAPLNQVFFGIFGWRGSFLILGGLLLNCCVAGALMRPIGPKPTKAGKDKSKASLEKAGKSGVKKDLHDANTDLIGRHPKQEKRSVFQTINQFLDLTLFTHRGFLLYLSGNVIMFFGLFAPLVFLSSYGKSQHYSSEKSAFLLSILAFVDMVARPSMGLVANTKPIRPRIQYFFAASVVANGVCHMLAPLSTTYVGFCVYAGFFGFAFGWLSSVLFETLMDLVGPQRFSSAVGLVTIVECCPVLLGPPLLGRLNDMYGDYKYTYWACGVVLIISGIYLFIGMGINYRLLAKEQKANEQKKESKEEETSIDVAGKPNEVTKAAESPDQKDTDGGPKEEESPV
Procedure: FIG. 4(c) is a line graph showing concentration-inhibition curves for the inhibition of uptake of the known substrate 2-thiophene glyoxylate (500 μM) for MCT1. DMSO (0.5%) was the solvent control (SC) and the known inhibitor phloretin (500 μM) was the positive control (PC).
FIG. 4(d) is a line graph showing concentration-inhibition curves for the inhibition of uptake of the known substrate 2-thiophene glyoxylate (500 μM) for MCT1. DMSO (0.5%) was the solvent control (SC) and the known inhibitor phloretin (500 μM) was the positive control (PC).
The known probe substrates used as positive controls are 3 μM chlorothiazide for OAT1, 2 μM estrone-3-sulfate for OAT3, 10 μM gabapentin for LAT1, 50 μM Gly-Sar for PepT1, 500 μM thiophene-2-glyoxylic acid for MCT1.
The IC50 value for the test item is determined by fitting the Hill equation in the following form:
where A % is the percent activity remaining (the mean cellular uptake observed in the solvent control sample set to 100% and the mean cellular uptake observed in the presence of the positive control inhibitor set to 0%), Top and Bottom are the upper and lower plateau of A %. [I] is the inhibitor concentration and IC50 is the inhibitor concentration where the remaining activity is at the midpoint between the Top and Bottom.

human transporter MCT1 = target: T3, human transporter MCT1 (Homo sapiens, UniProt P53985); assay: Human MCT1-mediated transport in MDCK-II cells (Example 9); format: cell-based; details: MDCK-II cells expressing human MCT1, pH 5.5, 1 minute, normalized to Vmax of thiophene-2-glyoxylic acid
T3 construct: expressed in transfected cells; host or cells: MDCK-II
T3 sequence (P53985 1-500): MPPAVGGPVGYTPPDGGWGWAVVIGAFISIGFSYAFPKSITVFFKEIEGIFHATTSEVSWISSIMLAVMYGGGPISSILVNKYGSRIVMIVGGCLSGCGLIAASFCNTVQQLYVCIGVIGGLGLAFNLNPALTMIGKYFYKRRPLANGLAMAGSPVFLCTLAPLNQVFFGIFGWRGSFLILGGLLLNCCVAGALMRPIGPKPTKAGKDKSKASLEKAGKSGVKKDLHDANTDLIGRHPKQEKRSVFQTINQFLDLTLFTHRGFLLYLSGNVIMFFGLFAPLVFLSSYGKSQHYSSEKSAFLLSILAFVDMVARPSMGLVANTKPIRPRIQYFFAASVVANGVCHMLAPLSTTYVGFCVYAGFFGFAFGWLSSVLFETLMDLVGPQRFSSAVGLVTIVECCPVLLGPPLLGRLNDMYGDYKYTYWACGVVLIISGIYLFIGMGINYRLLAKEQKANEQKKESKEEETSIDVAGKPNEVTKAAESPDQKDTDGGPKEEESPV
Procedure: Representative Compounds of the Disclosure are tested in (i) MDCK-II cells expressing human transporter MCT1; and (ii) MDCK-II cells transfected with a control vector (GFP) as control cells for human transporter MCT1. 2-Thiophene-glyoxylic acid (TPGA) is the positive control for transport.
• 1. A stock solution is prepared with the test article (Compound of the Disclosure) in DMSO or in HBSS-Bis-Tris. • 2. Final assay solutions of probe substrate or test article contain 0.5% (v/v) DMSO (vehicle control). • 3. Test article concentrations are 10 μM, 30 μM, 100 μM, 300 μM, 1000 μM, 3000 μM, and 10000 μM.
MDCK-II cells are maintained in DMEM with low glucose and 10% FBS. Cells passages up to 40 are seeded at 60K±10K cells/well on 96-well, transwell membrane plates approximately 24 hours before transfection. Transport assays are carried out approximately 48 hours after transfection.
• 1. Test system: • a. Test system: 96-well cell culture plate with wells containing a monolayer of MDCK-II cells grown on a permeable support and a corresponding 96-well receiver tray. Cell plates are maintained at 37° C. in 5% CO2 atmosphere prior to initiation of the transport experiment. • b. Pre-incubation is conducted in HBSS, pH 7.4. Transport experiments are conducted in HBSS with Bis-Tris, pH 5.5, without phenol red. Pre-incubation and incubation are conducted at ambient temperatures. • c. Each condition is run in triplicate wells. • d. […] The result from the control cells is used to correct for substrate permeation by routes other than the transporter being investigated in the study. • 2. Prepare the 96-well plate as follows: • a. Wash the basal side of the culture plate insert with HBSS three times. After the final wash, blot the basal side of the wells and keep this side dry. • b. Wash the culture plate wells with HBSS three times. The wells of the culture plate serve as the apical compartment. • 3. Aspirate the final wash from the culture plate. The wells of the culture plate serve as the apical compartment. Add 100 μL of HBSS pH 7.4 pre-incubation buffer containing vehicle to the apical compartments. • 4. Incubate the plates with orbital shaking at approximately 60 RPM for the pre-incubation time specified in Table 1 of this protocol. • 5. Aspirate the pre-incubation buffer from the apical compartment of the plates. Add 100 μL of the experimental buffer that is prepared as follows and maintained at ambient temperatures. • a. For the probe substrate transport assay, the HBSS with Bis-Tris, pH 5.5 in each well contains the probe substrate at 500 μM (positive control for transport) and vehicle control. • b. For the test article assays, the HBSS with Bis-Tris, pH 5.5 in each well contains the test article at 10 μM, 30 μM, 100 μM, 300 μM, 1000 μM, 3000 μM, and 10000 μM. • 6. Incubate at ambient temperature with orbital shaking at approximately 60 RPM for the incubation time of 1 minute. • 7. […]
• 1. The amount of radiolabeled probe substrate will be quantified with radiometric detection on a 1450 Microbeta (Perkin-Elmer). • 2. The amount of non-radiolabeled probe substrate or test article will be quantified by LC-MS/MS. • 3. […] For uptake assays, the net transporter-mediated uptake rate (V) of the substrate by each SLC transporter will be calculated as follows:
[formula] • 5. For transport kinetics assessment, Km and Vmax will be calculated by non-linear regression using the Michaelis-Menten equation. • 6. […]

[4] = test system: glycosphingolipid (GSL) biosynthesis; details: LSDs; cited from earlier work
[5] = substrate: CC(=O)N[C@H](CC(C)C)C(=O)O; assay: cells, lysate or membranes; details: other: uptake 1 min, room temperature

Vmax, metabolism [1]: 6.8 µmol/min/mg
disappearance, asymptote as % of the initial concentration [1]: ~50%
Vmax, metabolism [2]: 2.6 µmol/min/mg
disappearance, asymptote as % of the initial concentration [2]: ~50%
Molecule: [2H]C([2H])([2H])C([2H])(C([2H])([2H])[2H])C([2H])([2H])C([2H])(NC(C)=O)C(=O)O (racemic) [N-acetyl-DL-[^2H10]leucine]

substrate of LAT1 (uptake) (LAT1): neither a substrate
Molecule: CC(=O)N[C@@H](CC(C)C)C(=O)O [N-acetyl-leucine]

Ki ([3]; assuming competitive inhibition, read-out: affinity (Ki) for MCT1, Cheng-Prusoff equation): 1.6 mM
IC50 ([3]; probe substrate 2-thiophene glyoxylate 500 μM): 11 mM
Molecule: CC(=O)N[C@H](CC(C)C)C(=O)O [N-acetyl-D-leucine]

uptake mediated by MCT1 (human transporter MCT1): greatly reduced transport
Molecule: COC(=O)[C@@H](NC(C)=O)C(C)C [N-acetyl-L-valine methyl ester]

uptake mediated by MCT1 (human transporter MCT1): transported
Molecule: CCC(=O)N[C@H](C(=O)O)[C@@H](C)CC [N-propionyl-L-isoleucine]

uptake mediated by MCT1 (human transporter MCT1): transported
Molecule: CCC(=O)N[C@H](C(=O)O)C(C)C [N-propionyl-L-valine]

Molecule: CCCCN1C[C@H](O)[C@@H](O)[C@H](O)[C@H]1CO [miglustat]
benefit in clinical trial of substrate reduction therapy [4]: Some benefit

uptake mediated by MCT1 (human transporter MCT1): greatly reduced transport
Molecule: COC(=O)[C@H](CC(C)C)NC(C)=O [N-acetyl-L-leucine methyl ester]

B1: monocarboxylate transporter (MCT1) (Homo sapiens) (protein)
chain: MPPAVGGPVGYTPPDGGWGWAVVIGAFISIGFSYAFPKSITVFFKEIEGIFHATTSEVSWISSIMLAVMYGGGPISSILVNKYGSRIVMIVGGCLSGCGLIAASFCNTVQQLYVCIGVIGGLGLAFNLNPALTMIGKYFYKRRPLANGLAMAGSPVFLCTLAPLNQVFFGIFGWRGSFLILGGLLLNCCVAGALMRPIGPKPTKAGKDKSKASLEKAGKSGVKKDLHDANTDLIGRHPKQEKRSVFQTINQFLDLTLFTHRGFLLYLSGNVIMFFGLFAPLVFLSSYGKSQHYSSEKSAFLLSILAFVDMVARPSMGLVANTKPIRPRIQYFFAASVVANGVCHMLAPLSTTYVGFCVYAGFFGFAFGWLSSVLFETLMDLVGPQRFSSAVGLVTIVECCPVLLGPPLLGRLNDMYGDYKYTYWACGVVLIISGIYLFIGMGINYRLLAKEQKANEQKKESKEEETSIDVAGKPNEVTKAAESPDQKDTDGGPKEEESPV
Km [5]: 1000 µM
